Data on 12 compounds can be found in ChEMBL document CHEMBL1629711, “Synthesis and in vitro biological evaluation of new polyamine conjugates as potential anticancer drugs” (Eur J Med Chem, 2010).

Calls of active or inactive are those of the source. The calls are words filed in the database; no cut-off is given here.

Assay [1] deals with A-375. The experiment in a line: Cytotoxicity against human A375 cells at 1 to 100 uM after 44 hrs by MTT assay. It is filed as functional, cell-based.
The subject of assay [2] is A-375. In words: Cell cycle arrest in human A375 cells assessed as accumulation at G0/G1 phase at 20 uM after 24 hrs using propidium iodide staining by flow cytometry relative to control. It is filed as functional.
Assay [3] concerns A-375. The experiment in a line: Induction of apoptosis in human A375 cells assessed as morphological changes at IC50 concentration after 44 hrs using acridine orange and ethidium bromide staining by fluorescence microscopy. The format is functional, cell-based.
For assay [4], the system named is A-375. The experiment in a line: Cell cycle arrest in human A375 cells assessed as accumulation at hypodiploid subG1 phase at 20 uM after 24 hrs using propidium iodide staining by flow cytometry relative to control. It is filed as functional.
The subject of assay [5] is A-375. In words: Induction of apoptosis in human A375 cells assessed as morphological changes at 50 uM after 44 hrs using acridine orange and ethidium bromide staining by fluorescence microscopy. The format is functional.
The test system of assay [6] is A-375. In words: Cell cycle arrest in human A375 cells assessed as accumulation at S phase at 20 uM after 24 hrs using propidium iodide staining by flow cytometry relative to control. The format is functional.
The subject of assay [7] is A-375. In words: Cell cycle arrest in human A375 cells assessed as accumulation at G2/M phase at 20 uM after 24 hrs using propidium iodide staining by flow cytometry relative to control. The format is functional.
Assay [8] deals with A-375. The experiment in a line: Cytotoxicity against human A375 cells after 44 hrs by MTT assay. To be noted: for IC50: A-375, 44 h. It is filed as functional, cell-based.
The test system of assay [9] is A-375. The experiment in a line: Induction of necrosis in human A375 cells assessed as morphological changes at IC50 concentration after 44 hrs using acridine orange and ethidium bromide staining by fluorescence microscopy. The format is functional, cell-based.
For assay [10], the system named is A-375. In words: Cell cycle arrest in human A375 cells assessed as accumulation at hypodiploid subG1 phase at 50 uM after 24 hrs using propidium iodide staining by flow cytometry relative to control. The format is functional.
The test system of assay [11] is A-375. The experiment in a line: Cell cycle arrest in human A375 cells assessed as accumulation at G2/M phase at 50 uM after 24 hrs using propidium iodide staining by flow cytometry relative to control. It is filed as functional.
Assay [12] relates to A-375. In words: Cell cycle arrest in human A375 cells assessed as accumulation at S phase at 50 uM after 24 hrs using propidium iodide staining by flow cytometry relative to control. The format is functional.
For assay [13], the system named is A-375. The experiment in a line: Cell cycle arrest in human A375 cells assessed as accumulation at G0/G1 phase at 50 uM after 24 hrs using propidium iodide staining by flow cytometry relative to control. It is filed as functional.

In the case of `CN(CCCN1C(=O)c2cccc([N+](=O)[O-])c2C1=O)CCCN1C(=O)c2cccc([N+](=O)[O-])c2C1=O`, in assay [1], the outcome was inactive.
The same measure, in the same setting: for `O=C1c2ccccc2C(=O)N1CCCN1CCN(CCCN2C(=O)c3ccccc3C2=O)CC1` the value was “inactive”.
Same read-out and setting: to `CN(CCCN1C(=O)c2ccccc2C1=O)CCCN1C(=O)c2ccccc2C1=O` belongs “inactive”.
As for `Nc1c(C(=O)NCCCN2CCN(CCCNC(=O)c3cnc4ccccc4c3N)CC2)cnc2ccccc12`, the Activity in assay [2] is listed as 49%; in assay [4] it was 4%; in assay [5] it was 30%; in [6], 31%; in assay [7], 21%. In addition, the result in assay [3] and in assay [9] was inactive. In addition, the inhibition result in [8] was “Dose-dependent effect”. The IC50 in [8] came out at 16.8 µM.
`Cc1ccc2nnc(C(=O)NCCCN(C)CCCNC(=O)c3nnc4ccc(C)cc4c3N)c(N)c2c1`: in [3], the outcome was inactive. Further, in assay [8], the inhibition result is “Dose-dependent effect” and the IC50 was 116 µM. Moreover, in assay [9], the outcome was inactive.
`O=C1c2cccc([N+](=O)[O-])c2C(=O)N1CCCN1CCN(CCCN2C(=O)c3cccc([N+](=O)[O-])c3C2=O)CC1`: the outcome in assay [1] was inactive.
`O=C1c2ccccc2C(=O)N1CCCOCCCCOCCCN1C(=O)c2ccccc2C1=O`: the result in [1] was inactive.
In the case of `Cc1ccc2nnc(C(=O)NCCCOCCCCOCCCNC(=O)c3nnc4ccc(C)cc4c3N)c(N)c2c1`, the result in [3] was inactive. For the same compound, in assay [8], the inhibition result is “Dose-dependent effect” and half-maximal inhibition (IC50) required 100 µM. Moreover, the result in [9] was inactive.
Regarding `Cc1ccc2nnc(C(=O)NCCCN3CCN(CCCNC(=O)c4nnc5ccc(C)cc5c4N)CC3)c(N)c2c1`, the Activity came out at 9% in assay [10]; 46% in assay [11]; 22% in [12]; 35% in assay [2]; 4% in assay [4]; 14% in assay [5]. In addition, the Activity in assay [6] came to 19%; in [7], 46%; in [13], 32%. Besides, the outcome in assay [3] and in [9] was inactive. The inhibition entry in assay [8] is “Dose-dependent effect”. The compound also showed an IC50 in [8] of 31.6 µM.
Regarding `CN(CCCNC(=O)c1cnc2ccccc2c1N)CCCNC(=O)c1cnc2ccccc2c1N`, the result in [3] and in assay [9] was inactive. Also, in assay [8], the inhibition entry was “Dose-dependent effect”. The IC50 in assay [8] was determined as 87.9 µM.
With `Nc1c(C(=O)NCCCOCCCCOCCCNC(=O)c2cnc3ccccc3c2N)cnc2ccccc12`, the Activity in assay [10] was 3%; in [11] it was 8%; in assay [12], 53%; in assay [2], 58%; in assay [4], 2%; in assay [5] it was 8%. Also, the Activity was 22% in assay [6], 20% in assay [7] and 39% in [13]. The result in assay [3] and in [9] was inactive. The inhibition entry in assay [8] was “Dose-dependent effect”. In addition, half-maximal inhibition in [8] (IC50) required 15.5 µM.
Turning to `O=C1c2cccc([N+](=O)[O-])c2C(=O)N1CCCOCCCCOCCCN1C(=O)c2cccc([N+](=O)[O-])c2C1=O`, the outcome in assay [1] was inactive.
